Measured values: patent US11691949B2, “Quinoline sulfonamide compounds and their use as antibacterial agents” (OTAGO INNOVATION LIMITED, priority 2017, dated 2023)
Values after ≈ are worked out from the molar mass of the structure shown. Like-named read-outs stand apart in the source and are kept apart here.

Assays:
Type in all cases: cell-based
[1] = tested on: S. uberis ATCC 19436; experiment: MIC by broth microdilution, S. uberis; conditions: Streptococcus uberis, read-out: S. uberis ATCC 19436 MIC
Summary of the method: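 Streptococcus uberis ATCC 19436 was tested in Todd Hewitt Broth by broth microdilution in 96-well flat bottom plates, in biological triplicate. Overnight cells were diluted to OD600 of approximately 0.025, giving about 5×10^5 cfu/mL in the wells. Compounds were serially diluted two-fold to 200 μl, incubated 24 h at 37° C. and 200 rpm, and the MIC was taken from OD600.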

[2] = tested on: S. aureus ATCC 6538; experiment: MIC by broth microdilution, S. aureus; conditions: Staphylococcus aureus, read-out: S. aureus ATCC 6538 MIC
Summary of the method: (§1)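 Overnight cultures diluted to ~5×10^5 cfu/mL final; S. aureus in TSB and CAMHB, E. coli in LB and CAMHB, zinc sulphate to 50 μM final as required; two-fold serial dilutions. MIC = lowest concentration with no growth by OD600 after 24 h, 37° C, 200 rpm. MBC by Miles-Misra drop-plate viability count.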

[3] = tested on: E. coli ATCC 10596; experiment: MIC by broth microdilution, E. coli; conditions: Escherichia coli, read-out: E. coli ATCC 10536 MIC
Summary of the method: as §1

[4] = ATCC 10536 / ATCC 10596, No Zinc
[5] = ATCC 10536 / ATCC 10596, Zinc (50 μM)

Compound | MIC ([1]; ATCC19436, No Zinc) [µg/mL] | MIC ([1]; ATCC19436, Zinc (50 μM)) [µg/mL] | MIC ([2]; ATCC6538, No Zinc) [µg/mL] | MIC ([2]; ATCC6538, Zinc (50 μM)) [µg/mL] | MIC [3, 4] [µg/mL] | MIC [3, 5] [µg/mL]
CNCc1ccc2cccc(NS(=O)(=O)c3ccc(C(F)(F)F)cc3)c2n1 [ZDR024, N-(2-((Methylamino)methyl)quinolin-8-yl)-4-(trifluoromethyl)-benzenesulfonamide] | 64 (≈ 162 µM) | 0.25 (≈ 0.632 µM) | 16 (≈ 40.5 µM) | 8 (≈ 20.2 µM) | 256 (≈ 647 µM) | ≥ 256
C=CS(=O)(=O)Nc1cccc2ccc(CN(C)C)nc12 [ZDR500, N-(2-((Dimethylamino)methyl)quinolin-8-yl)ethenesulfonamide] | > 256 | 0.5 (≈ 1.72 µM) | 256 (≈ 879 µM) | > 256 | > 256 | > 256
CSc1ccc(S(=O)(=O)Nc2cccc3ccc(CN(C)C)nc23)cc1 [ZDR257, N-(2-((Dimethylamino)methyl)quinolin-8-yl)-4-(methylthio)benzenesulfonamide] | > 256 | 0.0625 (≈ 0.161 µM) | > 256 | > 256 | > 256 | > 256
O=S(=O)(Nc1cccc2ccc(CNCCOCCO)nc12)c1ccc(C(F)(F)F)cc1 [ZDR129, N-(2-(((2-(2-Hydroxyethoxy)ethyl)amino)methyl)quinolin-8-yl)-4-(trifluoromethyl)benzenesulfonamide] | 64 (≈ 136 µM) | 1 (≈ 2.13 µM) | 32 (≈ 68.2 µM) | 32 (≈ 68.2 µM) | 256 (≈ 545 µM) | 256 (≈ 545 µM)
O=C(N/N=C/c1ccc2cccc(NS(=O)(=O)c3ccc(C(F)(F)F)cc3)c2n1)c1ccccc1 [ZDR045, (E)-N-(2-((2-Benzoylhydrazono)methyl)quinolin-8-yl)-4-(trifluoromethyl)benzenesulfonamide] | > 256 | 0.125 (≈ 0.251 µM) | > 256 | > 256 | > 256 | > 256
CCC(C)NCc1ccc2cccc(NS(=O)(=O)c3ccc(C(F)(F)F)cc3)c2n1 (stereo not drawn) [ZDR402, N-(2-((sec-Butylamino)methyl)quinolin-8-yl)-4-(trifluoromethyl)benzenesulfonamide] | 16 (≈ 36.6 µM) | 0.125 (≈ 0.286 µM) | 32 (≈ 73.1 µM) | 128 (≈ 293 µM) | 256 (≈ 585 µM) | > 256
NCc1ccc2cccc(NS(=O)(=O)c3ccc(C(F)(F)F)cc3)c2n1 [ZDR184, N-(2-(Aminomethyl)quinolin-8-yl)-4-(trifluoromethyl)benzenesulfonamide] | 32 (≈ 83.9 µM) | 0.5 (≈ 1.31 µM) | 8 (≈ 21 µM) | 4 (≈ 10.5 µM) | 64 (≈ 168 µM) | 128 (≈ 336 µM)
CC(C)(C)OC(=O)CNCc1ccc2cccc(NS(=O)(=O)c3ccc(C(F)(F)F)cc3)c2n1 [ZDR041, N-(2-(((tert-Butoxycarbonylmethyl)amino)methyl)quinolin-8-yl)-4-(trifluoromethyl)benzenesulfonamide] | > 256 | 0.5 (≈ 1.01 µM) | 64 (≈ 129 µM) | > 256 | > 256 | > 256
O=S(=O)(Nc1cccc2ccc(CO)nc12)c1ccc(C(F)(F)F)cc1 [ZDR176, N-(2-(Hydroxymethyl)quinolin-8-yl)-4-(trifluoromethyl)benzenesulfonamide] | > 256 | 0.5 (≈ 1.31 µM) | 4 (≈ 10.5 µM) | 4 (≈ 10.5 µM) | > 256 | > 256
C=CCNCc1ccc2cccc(NS(=O)(=O)c3ccc(C(F)(F)F)cc3)c2n1 [ZDR097, N-(2-((Allylamino)methyl)quinolin-8-yl)-4-(trifluoromethyl)benzenesulfonamide] | > 256 | 0.0625 (≈ 0.148 µM) | > 256 | > 256 | > 256 | 256 (≈ 607 µM)
O=S(=O)(Nc1cccc2ccc(CNc3ccccn3)nc12)c1ccc(C(F)(F)F)cc1 [ZDR109, N-(2-((Pyridin-2-ylamino)methyl)quinolin-8-yl)-4-(trifluoromethyl)benzenesulfonamide] | > 256 | 0.5 (≈ 1.09 µM) | > 256 | > 256 | > 256 | > 256
